According to patent US10815230B2, “Casein kinase 1 delta inhibitor” (ELECTROPHORETICS LIMITED, priority 2015, dated 2020):

Assays:
Experiment in all cases: KINOMEscan binding assay
Settings in all cases: read-out: % Ctrl @ 10000 nM
JNK3 = JNK3 (Homo sapiens, UniProt P53779)
NIK = NIK (Homo sapiens, UniProt Q99558)
MST1R = MST1R (Homo sapiens, UniProt Q04912)
FGR = FGR (Homo sapiens, UniProt P09769)
TNK2 = TNK2 (Homo sapiens, UniProt Q07912)
CAMKK2 = CAMKK2 (Homo sapiens, UniProt Q96RR4)
MARK2 = MARK2 (Homo sapiens, UniProt Q7KZI7)
LRRK2 (G2019S) = biological target: T1, LRRK2 (G2019S) (Homo sapiens, UniProt Q5S007, G2019S)
T1 construct: T7 phage fusion (most assays) or DNA label after HEK293 expression; purchased DiscoveRx (KINOMEscan, LeadHunter Discovery services); host or cells: T7 phage in E. coli (BL21-derived) or HEK293

DAPK2 = DAPK2 (Homo sapiens, UniProt Q9UIK4)
FGFR4 = FGFR4 (Homo sapiens, UniProt P22455)
PRKD2 = PRKD2 (Homo sapiens, UniProt Q9BZL6)
TYRO3 = biological target: T2, TYRO3 (Homo sapiens, UniProt Q06418)
T2 construct: purchased DiscoveRx (KINOMEscan, LeadHunter Discovery services)

ABL1 non-phosphorylated = ABL1 non-phosphorylated (Homo sapiens, UniProt P00519)
PAK7 = PAK7 (Homo sapiens, UniProt Q9P286)
YANK2 = biological target: T3, YANK2 (Homo sapiens, UniProt Q9NY57)
T3 construct: purchased DiscoveRx (KINOMEscan, LeadHunter Discovery services)

PIP5K2C = PIP5K2C (Homo sapiens, UniProt Q8TBX8)
CSNK2A1 = CSNK2A1 (Homo sapiens, UniProt P68400)
[1] = biological target: ABL1 (H396P) non-phosphorylated (Homo sapiens, UniProt P00519, H396P)
MET (Y1235D) = MET (Y1235D) (Homo sapiens, UniProt P08581, Y1235D)
PIM3 = PIM3 (Homo sapiens, UniProt Q86V86)
EGFR (T790M) = EGFR (T790M) (Homo sapiens, UniProt P00533, T790M)
S6K1 = S6K1 (Homo sapiens, UniProt P23443)
[2] = biological target: RSK4 Kin.Dom.2-C-terminal (Homo sapiens, UniProt Q9UK32)
CSF1R-autoinhibited = CSF1R-autoinhibited (Homo sapiens, UniProt P07333)
TAOK2 = TAOK2 (Homo sapiens, UniProt Q9UL54)
TAOK1 = TAOK1 (Homo sapiens, UniProt Q7L7X3)
ABL2 = ABL2 (Homo sapiens, UniProt P42684)
DCAMKL1 = DCAMKL1 (Homo sapiens, UniProt O15075)
TLK2 = TLK2 (Homo sapiens, UniProt Q86UE8)
LCK = LCK (Homo sapiens, UniProt P06239)
CSNK1A1L = CSNK1A1L (Homo sapiens, UniProt Q8N752)
PRKG1 = PRKG1 (Homo sapiens, UniProt Q13976)
TNIK = TNIK (Homo sapiens, UniProt Q9UKE5)
CASK = CASK (Homo sapiens, UniProt O14936)
GRK7 = GRK7 (Homo sapiens, UniProt Q8WTQ7)
ZAP70 = biological target: T4, ZAP70 (Homo sapiens, UniProt P43403)
T4 construct: purchased DiscoveRx (KINOMEscan, LeadHunter Discovery services)

Sequence of PIP5K2C (Q8TBX8 whole entry): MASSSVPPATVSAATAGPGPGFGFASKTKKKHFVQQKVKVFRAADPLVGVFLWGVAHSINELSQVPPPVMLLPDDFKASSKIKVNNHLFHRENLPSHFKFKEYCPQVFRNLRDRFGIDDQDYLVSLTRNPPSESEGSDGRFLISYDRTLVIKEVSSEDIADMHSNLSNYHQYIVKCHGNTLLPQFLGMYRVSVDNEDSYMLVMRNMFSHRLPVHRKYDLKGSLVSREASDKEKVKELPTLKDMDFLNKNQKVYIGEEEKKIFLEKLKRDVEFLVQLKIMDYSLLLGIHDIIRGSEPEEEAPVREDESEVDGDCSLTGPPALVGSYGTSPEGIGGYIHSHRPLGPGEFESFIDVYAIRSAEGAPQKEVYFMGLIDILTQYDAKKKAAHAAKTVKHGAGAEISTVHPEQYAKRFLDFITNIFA
Sequence of CSNK1A1L (Q8N752 whole entry): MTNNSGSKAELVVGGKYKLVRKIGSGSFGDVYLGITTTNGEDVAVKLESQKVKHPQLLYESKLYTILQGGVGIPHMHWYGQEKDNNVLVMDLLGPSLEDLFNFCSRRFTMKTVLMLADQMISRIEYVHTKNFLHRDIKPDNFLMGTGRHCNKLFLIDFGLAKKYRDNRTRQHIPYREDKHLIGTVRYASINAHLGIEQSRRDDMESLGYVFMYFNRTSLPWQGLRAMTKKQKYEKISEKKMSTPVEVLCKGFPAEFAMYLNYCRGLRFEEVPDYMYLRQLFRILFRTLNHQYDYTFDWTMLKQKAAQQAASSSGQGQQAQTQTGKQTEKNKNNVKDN
Sequence of TNK2 (Q07912 whole entry): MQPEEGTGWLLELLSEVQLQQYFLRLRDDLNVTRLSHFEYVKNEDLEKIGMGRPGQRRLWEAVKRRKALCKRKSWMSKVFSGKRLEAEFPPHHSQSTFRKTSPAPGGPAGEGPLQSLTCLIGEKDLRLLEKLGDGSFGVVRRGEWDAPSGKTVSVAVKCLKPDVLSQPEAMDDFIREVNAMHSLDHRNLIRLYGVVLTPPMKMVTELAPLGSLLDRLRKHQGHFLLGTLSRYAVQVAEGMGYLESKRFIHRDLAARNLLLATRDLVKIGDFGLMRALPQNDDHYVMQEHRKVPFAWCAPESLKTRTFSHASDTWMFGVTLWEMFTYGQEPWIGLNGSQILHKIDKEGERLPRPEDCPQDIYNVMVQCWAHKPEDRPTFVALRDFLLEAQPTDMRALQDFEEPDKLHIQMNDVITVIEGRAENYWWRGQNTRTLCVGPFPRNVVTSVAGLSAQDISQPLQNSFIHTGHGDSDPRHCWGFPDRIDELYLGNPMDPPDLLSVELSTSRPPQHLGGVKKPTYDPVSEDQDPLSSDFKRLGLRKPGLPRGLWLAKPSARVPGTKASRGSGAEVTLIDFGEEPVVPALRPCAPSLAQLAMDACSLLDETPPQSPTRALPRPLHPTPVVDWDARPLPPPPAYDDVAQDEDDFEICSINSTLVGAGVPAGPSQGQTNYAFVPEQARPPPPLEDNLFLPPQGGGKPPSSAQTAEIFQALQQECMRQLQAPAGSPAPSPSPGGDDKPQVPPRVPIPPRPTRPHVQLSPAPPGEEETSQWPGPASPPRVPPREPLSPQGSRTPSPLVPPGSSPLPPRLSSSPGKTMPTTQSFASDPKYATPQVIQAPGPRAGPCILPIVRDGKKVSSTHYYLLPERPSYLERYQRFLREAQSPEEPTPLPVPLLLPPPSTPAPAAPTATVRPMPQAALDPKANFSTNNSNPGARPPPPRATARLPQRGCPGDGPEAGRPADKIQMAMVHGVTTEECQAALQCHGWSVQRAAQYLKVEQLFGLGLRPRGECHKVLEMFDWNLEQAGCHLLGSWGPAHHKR
Sequence of CAMKK2 (Q96RR4 whole entry): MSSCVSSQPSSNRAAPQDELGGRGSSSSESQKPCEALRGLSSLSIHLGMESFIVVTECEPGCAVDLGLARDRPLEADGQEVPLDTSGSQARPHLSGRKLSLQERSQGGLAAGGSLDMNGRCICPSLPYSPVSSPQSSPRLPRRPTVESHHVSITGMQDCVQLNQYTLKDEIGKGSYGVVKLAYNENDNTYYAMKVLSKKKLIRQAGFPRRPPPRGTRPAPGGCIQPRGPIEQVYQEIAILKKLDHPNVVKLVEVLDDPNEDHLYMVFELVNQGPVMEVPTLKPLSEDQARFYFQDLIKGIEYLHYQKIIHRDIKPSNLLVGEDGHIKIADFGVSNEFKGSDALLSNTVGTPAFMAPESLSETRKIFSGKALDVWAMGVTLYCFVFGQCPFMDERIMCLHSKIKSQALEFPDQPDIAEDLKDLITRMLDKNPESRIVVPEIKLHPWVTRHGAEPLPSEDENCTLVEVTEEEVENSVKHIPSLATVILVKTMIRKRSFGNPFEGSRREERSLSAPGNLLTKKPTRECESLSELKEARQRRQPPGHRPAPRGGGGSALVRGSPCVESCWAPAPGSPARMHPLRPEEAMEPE
Sequence of CSNK2A1 (P68400 whole entry): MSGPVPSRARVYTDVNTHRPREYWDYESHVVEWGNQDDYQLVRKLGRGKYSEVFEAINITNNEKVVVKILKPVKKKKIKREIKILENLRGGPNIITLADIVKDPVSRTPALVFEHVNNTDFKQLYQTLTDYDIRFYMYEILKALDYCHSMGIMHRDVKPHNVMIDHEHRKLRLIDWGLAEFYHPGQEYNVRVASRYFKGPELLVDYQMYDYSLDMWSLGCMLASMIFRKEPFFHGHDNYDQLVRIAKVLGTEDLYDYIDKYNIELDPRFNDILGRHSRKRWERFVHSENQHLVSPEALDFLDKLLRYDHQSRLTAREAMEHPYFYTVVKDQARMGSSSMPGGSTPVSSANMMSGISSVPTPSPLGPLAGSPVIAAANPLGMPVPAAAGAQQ
Sequence of TAOK2 (Q9UL54 whole entry): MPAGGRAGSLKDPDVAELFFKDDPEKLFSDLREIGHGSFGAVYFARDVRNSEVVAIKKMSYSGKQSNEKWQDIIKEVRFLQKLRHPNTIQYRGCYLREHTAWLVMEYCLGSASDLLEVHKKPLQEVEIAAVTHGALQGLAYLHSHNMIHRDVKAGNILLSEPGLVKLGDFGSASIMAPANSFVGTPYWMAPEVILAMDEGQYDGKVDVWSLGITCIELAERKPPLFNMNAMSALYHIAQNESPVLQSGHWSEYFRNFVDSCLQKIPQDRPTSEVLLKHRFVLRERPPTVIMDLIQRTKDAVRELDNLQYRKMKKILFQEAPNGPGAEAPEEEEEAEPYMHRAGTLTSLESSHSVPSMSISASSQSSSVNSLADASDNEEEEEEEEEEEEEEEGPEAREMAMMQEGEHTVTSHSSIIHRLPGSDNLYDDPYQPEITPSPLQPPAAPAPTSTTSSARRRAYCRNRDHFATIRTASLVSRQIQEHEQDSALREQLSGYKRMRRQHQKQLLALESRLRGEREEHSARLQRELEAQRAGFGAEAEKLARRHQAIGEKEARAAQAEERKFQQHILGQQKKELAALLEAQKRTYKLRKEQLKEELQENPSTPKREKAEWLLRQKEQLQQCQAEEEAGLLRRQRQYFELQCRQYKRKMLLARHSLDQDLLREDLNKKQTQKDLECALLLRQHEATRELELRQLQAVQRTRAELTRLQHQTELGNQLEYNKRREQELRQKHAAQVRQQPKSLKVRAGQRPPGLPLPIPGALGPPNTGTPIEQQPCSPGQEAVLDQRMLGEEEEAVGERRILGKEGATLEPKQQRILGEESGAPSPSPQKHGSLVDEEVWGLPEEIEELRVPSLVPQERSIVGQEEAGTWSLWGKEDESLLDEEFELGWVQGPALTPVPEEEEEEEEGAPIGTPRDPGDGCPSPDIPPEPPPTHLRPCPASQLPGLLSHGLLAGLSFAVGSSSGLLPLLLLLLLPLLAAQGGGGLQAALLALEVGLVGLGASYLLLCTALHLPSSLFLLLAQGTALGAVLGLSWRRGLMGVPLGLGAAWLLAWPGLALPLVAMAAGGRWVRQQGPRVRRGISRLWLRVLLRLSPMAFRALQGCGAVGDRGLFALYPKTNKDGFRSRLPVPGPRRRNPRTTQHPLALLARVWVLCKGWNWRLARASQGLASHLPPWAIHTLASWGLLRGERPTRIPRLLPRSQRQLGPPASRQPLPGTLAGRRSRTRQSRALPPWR
T3 sequence (Q9NY57 whole entry): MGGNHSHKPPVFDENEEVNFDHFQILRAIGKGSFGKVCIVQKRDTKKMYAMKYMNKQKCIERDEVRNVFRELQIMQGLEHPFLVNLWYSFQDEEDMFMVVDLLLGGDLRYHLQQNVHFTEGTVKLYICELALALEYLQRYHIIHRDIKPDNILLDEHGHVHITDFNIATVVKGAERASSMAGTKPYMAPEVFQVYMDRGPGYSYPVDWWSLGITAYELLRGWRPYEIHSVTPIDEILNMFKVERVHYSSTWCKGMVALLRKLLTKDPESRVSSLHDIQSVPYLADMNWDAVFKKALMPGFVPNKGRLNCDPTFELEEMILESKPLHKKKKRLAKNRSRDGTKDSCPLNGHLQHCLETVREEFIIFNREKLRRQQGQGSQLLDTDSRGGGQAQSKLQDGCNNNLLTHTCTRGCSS
Sequence of FGR (P09769 whole entry): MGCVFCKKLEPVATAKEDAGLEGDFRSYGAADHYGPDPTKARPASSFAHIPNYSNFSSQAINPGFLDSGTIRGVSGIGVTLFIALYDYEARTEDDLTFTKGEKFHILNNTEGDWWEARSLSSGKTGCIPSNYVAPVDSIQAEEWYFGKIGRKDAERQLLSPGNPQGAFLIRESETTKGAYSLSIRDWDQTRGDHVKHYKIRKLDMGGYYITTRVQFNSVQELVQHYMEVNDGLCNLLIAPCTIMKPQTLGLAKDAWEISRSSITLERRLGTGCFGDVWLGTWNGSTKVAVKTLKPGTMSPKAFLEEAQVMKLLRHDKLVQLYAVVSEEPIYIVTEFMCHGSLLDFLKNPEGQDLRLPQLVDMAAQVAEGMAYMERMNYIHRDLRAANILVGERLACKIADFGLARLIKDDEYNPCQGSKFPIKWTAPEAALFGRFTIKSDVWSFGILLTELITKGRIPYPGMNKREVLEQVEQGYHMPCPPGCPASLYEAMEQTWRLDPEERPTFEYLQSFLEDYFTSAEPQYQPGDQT

Structure (SMILES) | remaining binding at 10 µM (JNK3) [%] | remaining binding at 10 µM (NIK) [%] | remaining binding at 10 µM (MST1R) [%] | remaining binding at 10 µM (FGR) [%] | remaining binding at 10 µM (TNK2) [%] | remaining binding at 10 µM (CAMKK2) [%] | remaining binding at 10 µM (MARK2) [%] | remaining binding at 10 µM (LRRK2 (G2019S)) [%] | remaining binding at 10 µM (DAPK2) [%] | remaining binding at 10 µM (FGFR4) [%] | remaining binding at 10 µM (PRKD2) [%] | remaining binding at 10 µM (TYRO3) [%] | remaining binding at 10 µM (ABL1 non-phosphorylated) [%] | remaining binding at 10 µM (PAK7) [%] | remaining binding at 10 µM (YANK2) [%] | remaining binding at 10 µM (PIP5K2C) [%] | remaining binding at 10 µM (CSNK2A1) [%] | remaining binding at 10 µM [1] [%] | remaining binding at 10 µM (MET (Y1235D)) [%] | remaining binding at 10 µM (PIM3) [%] | other results
Nc1ncc(-c2nc3ccccc3o2)c(-c2ccncc2)n1 [Comparative Compound 324, 5-(1,3-benzoxazol-2-yl)-4-(pyridine-4-yl)pyrimidin-2-amine] | 6 | 100 | 85 | 94 | 100 | 97 | 91 | 76 | 100 | 100 | 90 | 99 | 81 | 96 | 70 | 72 | 56 | 66 | 83 | 94 | remaining binding at 10 µM (EGFR (T790M)): 88%; remaining binding at 10 µM (S6K1): 90%; remaining binding at 10 µM [2]: 35%; remaining binding at 10 µM (CSF1R-autoinhibited): 70%; remaining binding at 10 µM (TAOK2): 98%; remaining binding at 10 µM (TAOK1): 100%; remaining binding at 10 µM (ABL2): 85%; remaining binding at 10 µM (DCAMKL1): 41%; remaining binding at 10 µM (TLK2): 100%; remaining binding at 10 µM (LCK): 88%; remaining binding at 10 µM (CSNK1A1L): 81%; remaining binding at 10 µM (PRKG1): 100%; remaining binding at 10 µM (TNIK): 78%; remaining binding at 10 µM (CASK): 78%; remaining binding at 10 µM (GRK7): 91%; remaining binding at 10 µM (ZAP70): 78%
CNc1c(C(N)=O)c2ccccn2c1C(=O)c1ccc(F)cc1 [Compound A, 2-methyl-amino-3-[(4-fluorophenyl)carbonyl]indolizine-1-carboxamide] | 48 | 100 | 81 | 66 | 81 | 82 | 85 | 86 | 85 | 100 | 68 | 100 | 42 | 96 | 78 | 79 | 53 | 14 | 77 | 90 | remaining binding at 10 µM (EGFR (T790M)): 65%; remaining binding at 10 µM (S6K1): 82%; remaining binding at 10 µM [2]: 6.6%; remaining binding at 10 µM (CSF1R-autoinhibited): 100%; remaining binding at 10 µM (TAOK2): 80%; remaining binding at 10 µM (TAOK1): 94%; remaining binding at 10 µM (ABL2): 68%; remaining binding at 10 µM (DCAMKL1): 44%; remaining binding at 10 µM (TLK2): 94%; remaining binding at 10 µM (LCK): 23%; remaining binding at 10 µM (CSNK1A1L): 1.2%; remaining binding at 10 µM (PRKG1): 100%; remaining binding at 10 µM (TNIK): 53%; remaining binding at 10 µM (CASK): 77%; remaining binding at 10 µM (GRK7): 65%; remaining binding at 10 µM (ZAP70): 93%
